Laboratory results taken from ChEMBL document CHEMBL3044814, “Seasonal changes in chemical composition of epicuticular waxes from the leaves of Baccharis linearis” (1999).
≈ marks a conversion by molar mass, not a printed value.

What was measured:
Artemia salina = experiment: Toxicity against Artemia salina (brine shrimp); assay type: functional
Spodoptera littoralis = experiment: Antifeedant activity against fifth-instar larvae of Spodoptera littoralis at 10 ug/cm'2 by disk-choice assay; assay type: functional

| Compound | LC50 (Artemia salina) | FR50 (Spodoptera littoralis) |
| --- | --- | --- |
| C=C(COC(C)=O)C1Cc2cc(O)c(C(C)=O)cc2O1 (centres undefined) [ACETYLATED DIHYDROBENZOFURAN] | ≤ 10 µg/mL | 0.75 |
| CC1(C)CC[C@]2(CO)CC[C@]3(C)C(=CC[C@@H]4[C@@]5(C)CC[C@H](O)C(C)(C)[C@@H]5CC[C@]43C)[C@@H]2C1 [ERYTHRODIOL] | 50 µg/mL (≈ 113 µM) | 0.88 |
| CC(=O)Oc1ccc(/C=C/C(=O)O)cc1CC=C(C)C | < 50 µg/mL | – |
| COc1c(-c2ccc(O)cc2)oc2cc(O)cc(O)c2c1=O [ISOKAEMPFERIDE] | ≤ 10 µg/mL | – |
| COc1c(-c2ccc(O)c(O)c2)oc2cc(O)cc(O)c2c1=O [3-O-METHYLQUERCETIN] | 10 µg/mL (≈ 31.6 µM) | – |
| CC1(C)CC[C@]2(C(=O)O)CC[C@]3(C)C(=CC[C@@H]4[C@@]5(C)CC[C@H](O)C(C)(C)[C@@H]5CC[C@]43C)[C@@H]2C1 [OLEANOLIC_ACID] | 10 µg/mL (≈ 21.9 µM) | 1.34 |
| CCCC#CC#C/C=C/C(=O)OC [LACHNOPHYLLUM ESTER] | 5 µg/mL (≈ 28.4 µM) | 0.31 |
| COc1cc(-c2oc3cc(O)cc(O)c3c(=O)c2OC)ccc1O [3,3'-O-DIMETHYLQUERCETIN] | ≤ 10 µg/mL | – |
| CC1(C)CC[C@]2(C(=O)O)CC[C@]3(C)C(=CC[C@@H]4[C@@]5(C)C[C@@H](O)[C@H](O)C(C)(C)[C@@H]5CC[C@]43C)[C@@H]2C1 [MASLINIC ACID] | 20.2 µg/mL (≈ 42.7 µM) | 1.34 |
| C=C1CC[C@@H]2[C@H]([C@H]3[C@H]1CC[C@]3(C)O)C2(C)C [SPATHULENOL] | < 3 µg/mL | – |
| CC(=O)OC/C=C(/CC[C@@]1(C)[C@H](C)CC[C@@]2(CO)C(COC(C)=O)=CCC[C@@H]21)COC(C)=O | > 100 µg/mL | 0.99 |
| COC(=O)/C=C/c1ccc2c(c1)C=CC(C)(C)O2 [WERNERIACHROMENE] | < 3 µg/mL | 0.2 |
